In US5114851A, “Light activated acyl-enzymes” (Duke University, priority 1989, dated 1992):
Counter-ions that a name gives are not always drawn. Each block holds one compound with its values, some of them ahead of it.

How the values were obtained:
[1] = Photolysis of model compounds and cyclization of the cis photoisomer to the coumarin (conventional spectroscopy or flash photolysis); assay type: physicochemical
Text: Preliminary to our studies of the enzyme system, we studied the photochemistry of the model compounds Ethyl-(E)-2-methoxy-4-diethylamino-α-methylcinnamate and Ethyl-(E)-2-hydroxy-4-diethylamino-α-methylcinnamate (hereinafter "DEA acyl", as this compound models DEA acyl-thrombin with ethyl in place of thrombin). Photolysis of Ethyl-(E)-2-methoxy-4-diethylamino-α-methylcinnamate with 366 nm light results in a rapid decrease in absorbance as the cis photoisomer is formed (In all photolyses reported here, except for the laser flash studies, the source lamp was a mercury 500 W high pressure lamp. The 366 nm emission was isolated by a Bausch and Lomb grating monochromator). At the photostationary state, the cis photoisomer is 60% of the mixture, and the ε of the cis compound is <40% of that of the trans at 360 nm. Photolysis for 5 minutes of DEA acyl in 98% ethanol/2% pH 7.4 Tris buffer gives a sharp decrease in the absorbance at 360 nm, followed by a slow increase in absorbance at 380 nm due to the dark formation of the 3-methyl-7-N,N-diethylamino-coumarin (hereafter "the coumarin"). The increase in the absorbance due to the coumarin is first order with kc =7.17·10^-4 s^-1. The presence of the cis isomer has been confirmed by NMR after photolysis as <0° C. […] Photolysis of trans DEA acyl in Tris buffer alone gives a clean conversion to coumarin with an isosbestic point observed at 370 nm. Thus, in Tris and using conventional spectroscopy, there is no evidence for the formation of cis DEA acyl in the conversion of the trans isomer to coumarin, but flash photolysis experiments (vide infra) indicate that the cis intermediate is formed, but is very reactive in this solvent.
No evidence for a cis acyl enzyme photoisomer is seen by conventional spectroscopy. However, flash photolysis (10 nsec) of DEA acyl or DEA acyl-thrombin in Tris buffer with 355 nm light from a Nd/Yad laser does give evidence for the cis photoisomer. For both DEA acyl and DEA acyl-thrombin, the flash results in an immediate decrease in absorbance at 380 nm, followed by a first order increase of absorbance as the coumarin forms from the cis intermediate.

thrombin = test: Acylation (inactivation) of thrombin monitored by chromogenic assay; assay type: biochemical; settings: 1- to 5-fold excess of compound; thrombin 1.5 μM; pH 7.4 Tris buffer
Text: The reaction of 4-Amidinophenyl-(E)-2-hydroxy-4-diethylamino-α-methylcinnamate hydrocholoride (Compound F) with thrombin to form an acyl-thrombin (hereinafter "DEA acyl-thrombin") was monitored by chromogenic assay. See A. Turner, et al., 110 J.Am.Chem.Soc. 244 (1988); B. Blomback, Theoretical Considerations of Substrate Structures Governing Enzyme Specificity, 3 (M. Scully and V. Kakkar eds 1979)(New York: Churchill Livingston). A 1- to 5-fold excess of 4-Amidinophenyl-(E)-2-hydroxy-4-diethylamino-α-methylcinnamate with thrombin (1.5 μM) in pH 7.4 Tris buffer led to complete loss of thrombin activity in less than 1 hour.

- Half-Life of cyclization to give the coumarin ([1]; 50/50 ethanol/Tris pH 7.4, 23° C.): 0.118 min
- Half-Life of cyclization to give the coumarin ([1]; 98/2 ethanol/Tris pH 7.4, 23° C.): 16.1 min
Compound: CCOC(=O)/C(C)=C\c1ccc(N(CC)CC)cc1O [cis DEA acyl]
- First Order Rate Constant (cyclization of cis photoisomer to the coumarin) ([1]; 2/98 ethanol/Tris pH 7.4, 23° C., flash photolysis): 1.7 ± 0.5 s⁻¹
- increase of the rate of cyclization with solvent ([1]; 50/50 ethanol/Tris buffer versus 98% ethanol/2% Tris): two orders of magnitude

Compound: CCN(CC)c1ccc(/C=C(\C)C(=O)Oc2ccc(C(=N)N)cc2)c(O)c1 [Compound F, 2-Propenoic acid, 3-(2-hydroxy-4-diethylaminophenyl)-2-methyl-, 4-(aminoiminomethyl)phenyl ester,(E)-, monohydrochloride salt]
- loss of thrombin activity (thrombin): complete loss
- time to complete loss of thrombin activity (thrombin): less than 1 hour

- ε of the cis compound relative to that of the trans ([1]; at 360 nm): < 40%
Compound: CCOC(=O)/C(C)=C/c1ccc(N(CC)CC)cc1OC [Ethyl-(E)-2-methoxy-4-diethylamino-α-methylcinnamate]
